# According to article PMC10791743, “Selective CK1α degraders exert antiproliferative activity against a broad range of human cancer cell lines” (Nature Communications, 2024):
# Where “and” joins values, the source holds several entries; their conditions need not be identical. Equal values may be shown once. Entries after “also recorded” stand apart in the source; their conditions may differ.
# Key:
# [1] = Plasma stability assay, human; type: in vitro ADME; conditions: for Calculated Concentration: 0h standards set to Actual Concentration 100, IS warfarin, replicates
# Procedure: page 32: Aldrich, Saint Louis, MO) were diluted into 0.1 M potassium phosphate buffer (PBS, pH 7.4, KH2PO4, Cat. No: P284-500; K2HPO4, Cat. No: BP363-500, Fisher Scientific, Fair Lawn, NJ) and mixed well. 40 μL of this solution was transferred into the above compounds plates. For the time 0 plate, 3 fold (v:v) cold acetonitrile with warfarin (400 ng/mL) as the internal standard was added to […] and B in PBS, pH 7.4) and no incubation. For the other five time points’ plates, 10 μL NADPH regenerating agent mixer was added to each well to initiate the reaction, the plate was sealed and incubated at 37° C on an orbital shaker (100 rpm) for the required time, followed by quenching of the reaction by adding 3-fold volume of cold acetonitrile with internal standard to each well. The final concentration of each component applied in this reaction was liver microsome protein at 0.5 […] After quenching, all plates were securely sealed and thoroughly mixed at 600 rpm for 10 minutes. Subsequently, centrifugation was performed at 4000 rpm for 20 minutes. The resulting supernatants […] analysis using UPLC–MS/MS. The assessment of metabolic stability involved determining the half- life through a least-squares fit of multiple time points, employing first-order kinetics. Plasma stability assay5: The degradation of human or mouse plasma was assessed by monitoring the gradual reduction of the parent compound over specified time intervals (0, 3, 24, and 48 hours). Human and mouse plasma samples were sourced from GeneTex (Irvine, CA). Test compound stock solutions, prepared at 10 mM in DMSO, were dispensed into triplicate wells of a 96-well microplate using the Labcyte Echo 650 dispenser. For plates, excluding the time 0-hour plate, plasma was […] The plate was sealed, incubated at 37°C on an orbital shaker (100 rpm) for the required duration, and then quenched with cold acetonitrile, incorporating warfarin as the internal standard. In the case of the time 0-hour plate, cold acetonitrile with the internal standard was added to each well before introducing plasma, eliminating page 33: the need for further incubation. Following quenching, all plates were thoroughly mixed at 600 rpm for 10 minutes and centrifuged at 4000 rpm for 20 minutes. Supernatants were transferred to […] MS/MS analysis. Plasma stability was evaluated by determining the half-life through a least-squares fit of multiple time points based on first-order kinetics. Plasma protein binding assay: Test compound stock solutions were prepared at a concentration of 10 mM in DMSO. A Single-Use RED (Rapid Equilibrium Dialysis) device was acquired from Thermo Scientific (Cat. No: 99006, Rockford, IL). The sample preparation for plasma protein binding followed a modified version of Waters' method6. After thawing, plasma was centrifuged at 1000 rpm for 10 minutes to eliminate any particulates. Each compound was then prepared at a concentration of 10 µM in either human or mouse plasma. In the plasma protein binding assessment, 300 µL of spiked plasma solutions were introduced into the sample chamber (indicated by the red ring), while 550 µL of DPBS was added to the adjacent chamber. The plate was sealed and incubated at 37°C on an orbital shaker (100 rpm) for 4 hours. Post -incubation, 50 µL aliquots were withdrawn from each side of the insert and dispensed into a 96 -well storage plate. To create analytically identical sample matrices (matrix matching), an equivalent volume of blank plasma or DPBS was added to the necessary wells, followed by quenching w ith 3-fold (v:v) cold acetonitrile containing warfarin as the internal standard. Subsequently, the sealed plates were well -mixed at 600 rpm for 10 minutes and then centrifuged at 4000 rpm for 20 minutes. Supernatants were transferred to analytical […] Test compound concentrations were quantified in both the buffer and plasma chambers by determining peak areas relative to the internal standard. […]
# [2] = Plasma protein binding assay (RED), mouse; type: in vitro ADME
# Procedure: page 33: the need for further incubation. Following quenching, all plates were thoroughly mixed at 600 rpm for 10 minutes and centrifuged at 4000 rpm for 20 minutes. Supernatants were transferred to […] MS/MS analysis. Plasma stability was evaluated by determining the half-life through a least-squares fit of multiple time points based on first-order kinetics. Plasma protein binding assay: Test compound stock solutions were prepared at a concentration of 10 mM in DMSO. A Single-Use RED (Rapid Equilibrium Dialysis) device was acquired from Thermo Scientific (Cat. No: 99006, Rockford, IL). The sample preparation for plasma protein binding followed a modified version of Waters' method6. After thawing, plasma was centrifuged at 1000 rpm for 10 minutes to eliminate any particulates. Each compound was then prepared at a concentration of 10 µM in either human or mouse plasma. In the plasma protein binding assessment, 300 µL of spiked plasma solutions were introduced into the sample chamber (indicated by the red ring), while 550 µL of DPBS was added to the adjacent chamber. The plate was sealed and incubated at 37°C on an orbital shaker (100 rpm) for 4 hours. Post -incubation, 50 µL aliquots were withdrawn from each side of the insert and dispensed into a 96 -well storage plate. To create analytically identical sample matrices (matrix matching), an equivalent volume of blank plasma or DPBS was added to the necessary wells, followed by quenching w ith 3-fold (v:v) cold acetonitrile containing warfarin as the internal standard. Subsequently, the sealed plates were well -mixed at 600 rpm for 10 minutes and then centrifuged at 4000 rpm for 20 minutes. Supernatants were transferred to analytical […] Test compound concentrations were quantified in both the buffer and plasma chambers by determining peak areas relative to the internal standard. The percentage of the test compound bound to plasma was calculated using the following equation (4): %Free = (Concentration buffer chamber / concentration plasma chamber) x 100% and equation (5) %Bound = 100% - %Free.
# p21 = p21 immunoblotting in MOLM-13 cells; type: cell-based, human; conditions: for p21 quantified protein expression (western blot): 3 western blots
# [3] = time course 0-8 hrs, relative to no treatment
# [4] = human plasma, regression of log concentration over time points 0, 3, 24, 48 h
# [5] = mouse plasma, single replicates
compound,measurement,setting,value
O=C1CCC(N2Cc3cc(Nc4noc5ccccc45)ccc3C2=O)C(=O)N1 (stereo not shown) [SJ3149],Plasma stability,[1]; human,8.5 h
same,"fraction unbound at 4 h, 10 µM","[2]; mouse, plasma",0.038
same,"p21 induction, time course","p21; MOLM-13, 1 μM, 0-8 h",not present until 4 h; also recorded: does not occur until after 4 hours
same,p21 quantified protein expression (western blot),"p21; time 1 hr, relative to no treatment",0.8518 and 1.28 and 0.8338
same,p21 quantified protein expression (western blot),"p21; time 2 hrs, relative to no treatment",1.31 and 1.5551 and 1.213
same,p21 quantified protein expression (western blot),"p21; time 4 hrs, relative to no treatment",4.341 and 2.673 and 4.158
same,p21 quantified protein expression (western blot),"p21; time 8 hrs, relative to no treatment",4.765 and 2.907 and 5.628
same,"IC50 (line fit, sigmoidal 4PL) of p21 expression versus time","p21; time course 0-8 hrs, X axis is time",3.071
same,"Bottom (line fit, sigmoidal 4PL) of p21 expression versus time",p21; [3],0.988
same,"Top (line fit, sigmoidal 4PL) of p21 expression versus time",p21; [3],4.463
O=C1CCC(N2Cc3c(CNC(=O)c4ccc(F)cc4)cccc3C2=O)C(=O)N1 (stereo not shown) [SJ7095],p21 protein levels,"p21; MOLM-13, increasing concentrations, 4 h",dose-dependent upregulation of p21
O=C1CCC(N2Cc3cc(Nc4noc5ccccc45)ccc3C2=O)C(=O)N1 (stereo not shown) [SJ001043149-1],Calculated Concentration,"[1]; human plasma, time point 3h",67.501 and 81.153 and 72.775
same,Calculated Concentration,"[1]; human plasma, time point 24h",13.370 and 15.407 and 13.318
same,Calculated Concentration,"[1]; human plasma, time point 48h",1.845 and 2.121 and 1.968
same,Ke,[1]; [4],0.08114
same,t(1/2),[1]; [4],8.5413
same,AVG %Bound,"[2]; mouse plasma, average of 3 replicates",96.2%
same,%Bound,[2]; [5],96.641% and 95.489% and 96.3948%
same,%Free,[2]; [5],3.359% and 4.511% and 3.605%
